We go through 13 compounds from ChEMBL document CHEMBL3091438, “Discovery and characterisation of hydrazines as inhibitors of the immune suppressive enzyme, indoleamine 2,3-dioxygenase 1 (IDO1)” (Bioorg Med Chem, 2013).

Series [1] addresses T1, Indoleamine 2,3-dioxygenase 1 (Homo sapiens, UniProt P14902). Kind of series: Inhibition of recombinant human IDO1 expressed in Escherichia coli EC538 using L-tryptophan as substrate at 0.1 mM after 1 hr relative to control.
Target sequence in this assay (P14902 whole entry, looked up): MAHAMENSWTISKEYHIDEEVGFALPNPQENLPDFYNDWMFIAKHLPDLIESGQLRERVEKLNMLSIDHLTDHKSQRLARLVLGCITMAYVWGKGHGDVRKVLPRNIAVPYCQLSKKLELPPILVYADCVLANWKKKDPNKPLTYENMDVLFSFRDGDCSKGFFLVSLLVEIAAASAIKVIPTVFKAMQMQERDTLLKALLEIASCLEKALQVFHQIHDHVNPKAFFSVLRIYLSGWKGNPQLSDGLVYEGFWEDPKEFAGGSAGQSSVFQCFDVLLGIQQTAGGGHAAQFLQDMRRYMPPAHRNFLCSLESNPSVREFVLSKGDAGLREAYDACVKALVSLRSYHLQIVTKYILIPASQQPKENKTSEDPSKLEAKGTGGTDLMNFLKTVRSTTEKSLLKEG
For series [2], the target named is T1, Indoleamine 2,3-dioxygenase 1. Kind of series: Inhibition of recombinant human IDO1 expressed in Escherichia coli EC538 using L-tryptophan as substrate after 1 hr.
Target sequence in this assay (P14902 whole entry): as the sequence (P14902 whole entry, looked up) above
The nature of series [3]: Cytotoxicity against mouse LLTC cells at IC50 by MTT assay. Type of series: cell-based. A general note: Tetrazolium dyes change colour on reduction, which living cells bring about.
Series [4] deals with Indoleamine 2,3-dioxygenase 1 (Mus musculus, UniProt P28776). Description: Inhibition of mouse IDO1 expressed in mouse LLTC cells using L-tryptophan as substrate after 24 hrs. Type of series: cell-based.
Sequence of Indoleamine 2,3-dioxygenase 1 (Mus musculus, UniProt P28776) (P28776 whole entry): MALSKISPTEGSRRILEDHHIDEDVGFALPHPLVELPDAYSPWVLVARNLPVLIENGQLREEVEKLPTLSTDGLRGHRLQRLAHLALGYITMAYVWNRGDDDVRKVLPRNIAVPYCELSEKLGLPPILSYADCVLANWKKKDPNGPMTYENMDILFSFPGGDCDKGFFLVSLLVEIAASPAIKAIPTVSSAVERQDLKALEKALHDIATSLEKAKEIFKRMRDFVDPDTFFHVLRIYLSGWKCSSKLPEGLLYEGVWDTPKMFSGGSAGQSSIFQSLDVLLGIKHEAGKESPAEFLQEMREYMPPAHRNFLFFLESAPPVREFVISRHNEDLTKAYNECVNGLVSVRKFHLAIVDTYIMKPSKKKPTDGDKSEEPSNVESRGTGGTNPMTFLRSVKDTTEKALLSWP
Series [5] addresses T1, Indoleamine 2,3-dioxygenase 1. Description: Inhibition of human IDO1 expressed in mouse LLTC cells using L-tryptophan as substrate after 24 hrs. Type of series: cell-based.
Target sequence in this assay (P14902 whole entry): as the sequence (P14902 whole entry, looked up) above
For series [6] the target is unchanged. Description: Ratio of 2-hydrazinobenzothiazole IC50 to compound IC50 for recombinant human IDO1.
Target sequence in this assay (P14902 whole entry, looked up): as above

A word on the inhibition: it is the drop in the measured response relative to a control, in per cent. As usually defined, the IC50 is the concentration needed to halve the response being measured. For `NNc1nc2cc(Cl)ccc2s1`, the inhibition in series [1] stood at 86%. The IC50 in series [2] was 1.5 µM.

Consider `Sc1nc2ccccc2s1` [2-MERCAPTOBENZOTHIAZOLE], for which the IC50 in series [2] was 126 µM.

With `NNc1nc2ccccc2s1`, the Activity result in series [3] is given as “Non-toxic”. Besides, the IC50 in series [4] is 50.5 µM; in series [5], 62.3 µM; in series [2], 8 µM. Moreover, the inhibition in series [1] came out at 91%. As to `NNc1nc2cc(C(F)(F)F)ccc2s1`, in series [1], the inhibition worked out at 46%. Still for that read-out and setting: next, `CC(C)=NNc1nc2ccccc2s1`: 30%. The same measure, in the same setting: next, `Cc1ccc2nc(NN)sc2c1`: 37%; `NNC(=O)c1ccc2nc(NN)sc2c1`: -1%. With `c1ccc2sc(SSc3nc4ccccc4s3)nc2c1` [BENZOTHIAZYL DISULFIDE], the IC50 in series [2] is over 500 µM. For the compound `NNc1ccccc1` [PHENYLHYDRAZINE], in series [3], the Activity entry is “Non-toxic”. Also, the IC50 is 0.2 µM in series [4], 1.3 µM in series [5] and 0.25 µM in series [2]. For the same compound, the Ratio IC50 in series [6] worked out at 32.

For the compound `N#CCCN(N)c1nc2ccccc2s1`, the inhibition in series [1] stood at 2%. With `Nc1nc2ccc([N+](=O)[O-])cc2s1`, the IC50 in series [2] was over 500 µM. In the case of `O=C(O)/C=N/Nc1nc2ccccc2s1`, the inhibition in series [1] turned out to be 13%. Take `c1ccc2scnc2c1` [BENZO[D]THIAZOLE]: in series [2], the IC50 is 652 µM.
